Reference: patent publication US20230065740A1, “CYCLIN-DEPENDENT KINASE INHIBITORS” (SPV THERAPEUTICS INC., priority 2018, published 2023)
“And” between values parts separate entries of the source, which are not always exact repeats. Identical values can stand only once. Like-named read-outs stand apart in the source and are kept apart here.

Legend:
CDK9-CYCLINT1 = target: T1, CDK9-CYCLINT1 (Homo sapiens, UniProt P50750); test: Microfluidic LabChip kinase inhibition assay, CDK9-CyclinT1; assay type: biochemical
T1 construct: purchased Carna

CDK2-CYCLINA = target: T2, CDK2-CYCLINA (Homo sapiens, UniProt P24941); test: Microfluidic LabChip kinase inhibition assay, CDK2-CyclinA; assay type: biochemical; conditions: 50 μM ATP
T2 construct: purchased Millipore

CDK4-CYCLIND1 = CDK4-CYCLIND1 (Homo sapiens, UniProt P11802); test: Microfluidic LabChip kinase inhibition assay, CDK4-CyclinD1; conditions: 200 μM ATP
CDK1/B = CDK1/B (Homo sapiens, UniProt P06493); test: Additional inhibition assay, CDK1/B; assay type: biochemical
CDK7 CyclinH = CDK7 CyclinH (Homo sapiens, UniProt P50613); test: Additional inhibition assay, CDK7 CyclinH; assay type: biochemical
CDK6-CYCLIND3 = target: T3, CDK6-CYCLIND3 (Homo sapiens, UniProt Q00534); test: Microfluidic LabChip kinase inhibition assay, CDK6-CyclinD3; assay type: biochemical; conditions: 300 μM ATP
T3 construct: purchased Carna

[1] = CDK4 CyclinD1 IC50 (μM), Table 3a, second value in parentheses on the next line
[2] = CDK4 CyclinD1 IC50 (μM), Table 3b, second value in parentheses on the next line
[3] = Table 3a, 10 μM ATP, read-out: CDK9 CyclinT1 IC50
[4] = CDK4 IC50 (μM), Table 2, 1 nM enzyme
[5] = Table 2, 2 nM enzyme, read-out: CDK6 IC50
[6] = Table 3a, read-out: CDK6 CyclinD3 IC50
[7] = Table 3b, read-out: CDK6 CyclinD3 IC50

T3 sequence (Q00534 whole entry): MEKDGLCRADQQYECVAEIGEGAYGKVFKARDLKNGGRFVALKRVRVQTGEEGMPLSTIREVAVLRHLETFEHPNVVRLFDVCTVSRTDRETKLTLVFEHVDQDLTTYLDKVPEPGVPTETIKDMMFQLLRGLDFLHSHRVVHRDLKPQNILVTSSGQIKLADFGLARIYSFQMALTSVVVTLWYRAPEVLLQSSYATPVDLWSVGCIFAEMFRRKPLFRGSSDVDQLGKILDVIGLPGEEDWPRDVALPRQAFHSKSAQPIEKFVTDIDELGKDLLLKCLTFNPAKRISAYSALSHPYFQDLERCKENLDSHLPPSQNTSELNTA
T3 sequence (P30281 whole entry partner): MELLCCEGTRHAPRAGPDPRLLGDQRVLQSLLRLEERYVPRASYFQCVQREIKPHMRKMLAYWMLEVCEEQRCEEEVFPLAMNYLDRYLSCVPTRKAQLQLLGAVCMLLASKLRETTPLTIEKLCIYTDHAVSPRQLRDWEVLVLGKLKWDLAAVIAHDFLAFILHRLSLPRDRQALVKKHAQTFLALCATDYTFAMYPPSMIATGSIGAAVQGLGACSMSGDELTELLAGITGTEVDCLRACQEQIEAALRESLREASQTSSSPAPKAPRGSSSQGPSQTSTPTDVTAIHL
Sequence of CDK1/B (P06493 whole entry): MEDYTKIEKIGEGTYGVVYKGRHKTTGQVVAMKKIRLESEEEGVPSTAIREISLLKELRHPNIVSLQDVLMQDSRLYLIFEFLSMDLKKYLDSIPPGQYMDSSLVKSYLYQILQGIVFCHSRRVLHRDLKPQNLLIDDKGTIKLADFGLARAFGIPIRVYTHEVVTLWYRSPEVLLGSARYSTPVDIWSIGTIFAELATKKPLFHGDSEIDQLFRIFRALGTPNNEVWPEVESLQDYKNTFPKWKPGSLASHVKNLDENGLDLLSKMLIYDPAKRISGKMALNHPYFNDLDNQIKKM
Sequence of CDK1/B (P14635 whole entry partner): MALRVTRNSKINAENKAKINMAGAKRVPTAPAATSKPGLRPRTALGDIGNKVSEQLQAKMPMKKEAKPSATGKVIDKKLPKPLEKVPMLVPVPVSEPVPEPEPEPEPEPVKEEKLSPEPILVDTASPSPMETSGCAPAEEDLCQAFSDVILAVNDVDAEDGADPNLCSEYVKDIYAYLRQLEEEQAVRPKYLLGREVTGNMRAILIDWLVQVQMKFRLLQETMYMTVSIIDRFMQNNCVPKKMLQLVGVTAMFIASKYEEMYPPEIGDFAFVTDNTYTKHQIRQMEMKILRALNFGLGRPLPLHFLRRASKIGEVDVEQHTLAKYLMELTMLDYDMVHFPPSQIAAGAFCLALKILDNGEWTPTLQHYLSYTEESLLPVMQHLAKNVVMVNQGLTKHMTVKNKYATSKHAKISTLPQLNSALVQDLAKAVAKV
T1 sequence (P50750 whole entry): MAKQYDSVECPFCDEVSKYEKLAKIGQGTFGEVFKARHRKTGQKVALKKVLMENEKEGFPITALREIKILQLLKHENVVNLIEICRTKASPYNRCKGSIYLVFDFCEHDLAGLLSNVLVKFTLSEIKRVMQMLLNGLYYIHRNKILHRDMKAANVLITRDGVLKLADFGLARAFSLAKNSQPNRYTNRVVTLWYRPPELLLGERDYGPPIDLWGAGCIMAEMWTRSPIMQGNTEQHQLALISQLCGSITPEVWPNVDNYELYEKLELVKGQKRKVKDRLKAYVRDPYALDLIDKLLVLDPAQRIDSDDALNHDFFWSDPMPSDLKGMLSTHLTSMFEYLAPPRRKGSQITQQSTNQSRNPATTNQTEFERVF
T1 sequence (O60563 whole entry partner): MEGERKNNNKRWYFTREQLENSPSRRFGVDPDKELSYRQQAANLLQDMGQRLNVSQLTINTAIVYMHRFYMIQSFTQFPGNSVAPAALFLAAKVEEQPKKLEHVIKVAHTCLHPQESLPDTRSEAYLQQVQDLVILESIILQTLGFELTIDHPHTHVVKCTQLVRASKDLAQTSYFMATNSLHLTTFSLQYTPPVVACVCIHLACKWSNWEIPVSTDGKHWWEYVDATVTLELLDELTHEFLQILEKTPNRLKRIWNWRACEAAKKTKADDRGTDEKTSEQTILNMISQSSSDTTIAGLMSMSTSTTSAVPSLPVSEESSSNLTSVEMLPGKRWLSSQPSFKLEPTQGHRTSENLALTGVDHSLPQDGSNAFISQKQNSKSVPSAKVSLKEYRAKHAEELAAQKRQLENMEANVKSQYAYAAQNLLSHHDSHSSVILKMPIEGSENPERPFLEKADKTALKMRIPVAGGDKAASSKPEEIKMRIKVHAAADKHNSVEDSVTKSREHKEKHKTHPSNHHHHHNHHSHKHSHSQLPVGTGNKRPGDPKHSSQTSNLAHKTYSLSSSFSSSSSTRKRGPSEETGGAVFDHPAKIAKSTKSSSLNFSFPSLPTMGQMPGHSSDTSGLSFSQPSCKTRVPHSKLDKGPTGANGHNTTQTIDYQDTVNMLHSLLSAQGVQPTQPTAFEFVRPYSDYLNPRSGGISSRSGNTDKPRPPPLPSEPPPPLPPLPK
Sequence of CDK7 CyclinH (P50613 whole entry): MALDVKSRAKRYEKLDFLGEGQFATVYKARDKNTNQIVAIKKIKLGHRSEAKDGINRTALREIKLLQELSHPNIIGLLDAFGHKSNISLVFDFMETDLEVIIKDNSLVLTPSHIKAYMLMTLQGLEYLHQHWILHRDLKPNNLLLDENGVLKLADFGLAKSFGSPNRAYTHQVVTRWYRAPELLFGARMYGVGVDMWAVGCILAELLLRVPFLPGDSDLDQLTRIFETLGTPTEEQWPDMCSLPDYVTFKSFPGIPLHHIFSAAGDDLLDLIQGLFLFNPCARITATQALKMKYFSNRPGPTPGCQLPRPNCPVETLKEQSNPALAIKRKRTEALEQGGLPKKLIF
Sequence of CDK7 CyclinH (P51946 whole entry partner): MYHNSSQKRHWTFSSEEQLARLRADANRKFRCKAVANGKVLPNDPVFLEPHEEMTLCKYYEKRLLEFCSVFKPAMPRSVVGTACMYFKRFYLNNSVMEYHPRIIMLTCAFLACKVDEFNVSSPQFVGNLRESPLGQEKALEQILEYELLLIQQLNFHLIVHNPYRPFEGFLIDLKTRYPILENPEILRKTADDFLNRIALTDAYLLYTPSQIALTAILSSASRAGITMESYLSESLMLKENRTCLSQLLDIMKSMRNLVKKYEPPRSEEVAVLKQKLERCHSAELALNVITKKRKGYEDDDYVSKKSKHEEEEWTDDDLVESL
Sequence of CDK7 CyclinH (P51948 whole entry partner): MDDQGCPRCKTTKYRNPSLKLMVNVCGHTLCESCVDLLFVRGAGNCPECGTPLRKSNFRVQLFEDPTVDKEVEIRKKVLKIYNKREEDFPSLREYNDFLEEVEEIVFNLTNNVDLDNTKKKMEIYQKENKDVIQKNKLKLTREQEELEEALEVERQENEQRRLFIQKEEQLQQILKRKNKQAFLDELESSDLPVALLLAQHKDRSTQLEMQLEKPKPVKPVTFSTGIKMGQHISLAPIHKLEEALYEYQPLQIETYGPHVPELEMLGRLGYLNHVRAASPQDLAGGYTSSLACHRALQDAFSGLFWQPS
Sequence of CDK4-CYCLIND1 (P11802 whole entry): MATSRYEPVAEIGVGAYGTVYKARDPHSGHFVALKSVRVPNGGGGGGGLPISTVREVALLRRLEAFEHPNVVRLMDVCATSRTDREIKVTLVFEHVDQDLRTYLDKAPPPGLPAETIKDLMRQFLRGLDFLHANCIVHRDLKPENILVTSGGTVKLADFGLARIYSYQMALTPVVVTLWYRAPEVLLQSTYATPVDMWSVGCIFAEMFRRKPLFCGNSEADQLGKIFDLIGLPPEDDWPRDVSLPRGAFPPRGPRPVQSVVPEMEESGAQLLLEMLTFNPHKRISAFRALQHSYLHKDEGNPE
Sequence of CDK4-CYCLIND1 (P24385 whole entry partner): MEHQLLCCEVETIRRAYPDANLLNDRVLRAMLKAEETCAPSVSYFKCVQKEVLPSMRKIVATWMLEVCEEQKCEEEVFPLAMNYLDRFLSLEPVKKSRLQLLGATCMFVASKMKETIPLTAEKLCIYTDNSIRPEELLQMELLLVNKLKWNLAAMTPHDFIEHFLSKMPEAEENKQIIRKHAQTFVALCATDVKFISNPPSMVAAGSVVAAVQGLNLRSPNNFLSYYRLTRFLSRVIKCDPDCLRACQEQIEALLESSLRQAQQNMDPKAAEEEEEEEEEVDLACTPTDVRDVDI

| Compound | IC50 (CDK9-CYCLINT1) [nM] | IC50 (CDK2-CYCLINA; Table 3a) [nM] | IC50 (CDK2-CYCLINA; Table 3b) [nM] | IC50 (CDK4-CYCLIND1; [1]) | IC50 (CDK4-CYCLIND1; [2]) | IC50 (CDK1/B; Table 3a) [nM] | IC50 (CDK1/B; Table 3b) [nM] | IC50 (CDK7 CyclinH; Table 3a) [nM] | IC50 (CDK7 CyclinH; Table 3b) [nM] | IC50 (CDK9-CYCLINT1; [3]) [nM] | IC50 (CDK6-CYCLIND3; CDK6 CyclinD3 IC50 (μM), Table 3a) [µM] | IC50 (CDK6-CYCLIND3; CDK6 CyclinD3 IC50 (μM), Table 3b) [µM] | IC50 (CDK4-CYCLIND1; [4]) [µM] | IC50 (CDK6-CYCLIND3; [5]) [µM] | IC50 (CDK6-CYCLIND3; [6]) [µM] | IC50 (CDK6-CYCLIND3; [7]) [µM] |
| --- | --- | --- | --- | --- | --- | --- | --- | --- | --- | --- | --- | --- | --- | --- | --- | --- |
| CN1CCN(c2ccc(Nc3ncc4c(n3)N(C3CCCC3)C3(CC(=O)NC3=O)C4)cc2)CC1 (single isomer, unassigned) [Compound C136, 7′-cyclopentyl-2′-((4-(4-methylpiperazin-1-yl)phenyl)amino)-5′,7′-dihydrospiro[pyrrolidine-3,6′-pyrrolo[2,3-d]pyrimidine]-2,5-dione] | 80.5 | 1540 | 1540 | 0.0257 µM | 0.0257 µM | 1270 | 1270 | 5740 | 5740 |  |  |  |  |  |  |  |
| CN1CCN(c2ccc(Nc3ncc4c(n3)N(C3CCCC3)C3(CC(=O)NC3=O)C4)cc2)CC1 (single isomer, unassigned) [Compound C137, 7′-cyclopentyl-2′-((4-(4-methylpiperazin-1-yl)phenyl)amino)-5′,7′-dihydrospiro[pyrrolidine-3,6′-pyrrolo[2,3-d]pyrimidine]-2,5-dione] |  | 3330 | 3330 | 0.202 µM | 0.202 µM | 1650 | 1650 | 585 | 585 | 367 |  |  |  |  |  |  |
| CN1CCN(c2ccc(Nc3ncc4c(n3)N(C3CCCC3)C3(CCNC3=O)C4)cc2F)CC1 (single isomer, unassigned) [Compound C197, 7′-cyclopentyl-2′-((3-fluoro-4-(4-methylpiperazin-1-yl)phenyl)amino)-5′,7′-dihydrospiro[pyrrolidine-3,6′-pyrrolo[2,3-d]pyrimidin]-2-one] | 46.6 | 2100 | 2100 | 0.0517 µM and 0.028 µM | 0.0517 µM and 0.028 µM |  |  | 22100 | 22100 |  | 0.258 | 0.258 |  |  |  |  |
| O=C1NCCC12C(=O)N(C1CCCC1)c1nc(Nc3ccc(N4CCNCC4)c(F)c3)ncc12 (stereo not drawn) [Compound C102, 7′-cyclopentyl-2′-((3-fluoro-4-(piperazin-1-yl)phenyl)amino)spiro[pyrrolidine-3,5′-pyrrolo[2,3-d]pyrimidine]-2,6′(7′H)-dione] |  |  |  |  |  |  |  |  |  |  |  |  | 21.8 | 25.5 |  |  |
| CN1CCN(c2ccc(Nc3ncc4c(n3)N(C3CCCC3)C(=O)C43CCNC3=O)cc2F)CC1 (stereo not drawn) [Compound C103, 7′-cyclopentyl-2′-((3-fluoro-4-(4-methylpiperazin-1-yl)phenyl)amino)spiro[pyrrolidine-3,5′-pyrrolo[2,3-d]pyrimidine]-2,6′(7′H)-dione] |  |  |  |  |  |  |  |  |  |  |  |  | 20 | 50.7 |  |  |
| CN(C)[C@H]1CCN(c2ccc(Nc3ncc4c(n3)N(C3CCCC3)C(=O)C43CCNC3=O)cc2F)C1 (stereo partly drawn) [Compound C105, 7′-cyclopentyl-2′-((4-((S)-3-(dimethylamino)pyrrolidin-1-yl)-3-fluorophenyl)amino)spiro[pyrrolidine-3,5′-pyrrolo[2,3-d]pyrimidine]-2,6′(7′H)-dione] |  |  |  |  |  |  |  |  |  |  |  |  | 11.8 | 29.7 |  |  |
| O=C1NCCC12C(=O)N(C1CCCC1)c1nc(Nc3ccc(N4CCC(N5CCOCC5)CC4)c(F)c3)ncc12 (stereo not drawn) [Compound C106, 7′-cyclopentyl-2′-((3-fluoro-4-(4-morpholinopiperidin-1-yl)phenyl)amino)spiro[pyrrolidine-3,5′-pyrrolo[2,3-d]pyrimidine]-2,6′(7′H)-dione] |  |  |  |  |  |  |  |  |  |  |  |  | 7.35 | 14.7 |  |  |
| O=C1NCCC12Cc1cnc(Nc3ccc(N4CC5(CNC5)C4)c(F)c3)nc1N2C1CCCC1 (stereo not drawn) [Compound C107, 7′-cyclopentyl-2′-((3-fluoro-4-(2,6-diazaspiro[3.3]heptan-2-yl)phenyl)amino)-5′,7′-dihydrospiro[pyrrolidine-3,6′-pyrrolo[2,3-d]pyrimidin]-2-one] |  |  |  |  |  |  |  |  |  |  |  |  | 0.0866 | 0.335 |  |  |
| CN(C)CCOc1ccc(Nc2ncc3c(n2)N(C2CCCC2)C2(CCNC2=O)C3)cc1 (stereo not drawn) [Compound C108, 7′-cyclopentyl-2′-((4-(2-(dimethylamino)ethoxy)phenyl)amino)-5′,7′-dihydrospiro[pyrrolidine-3,6′-pyrrolo[2,3-d]pyrimidin]-2-one] |  | > 10000 | > 10000 | 0.124 µM | 0.124 µM | 6350 | 6350 | > 10000 | > 10000 | 21 |  |  |  |  |  |  |
| CN1CCN(c2ccc(Nc3ncc4c(n3)N(C3CCCC3)C3(CCNC3=O)C4)cc2)CC1 (stereo not drawn) [Compound C115, 7′-cyclopentyl-2′-((4-(4-methylpiperazin-1-yl)phenyl)amino)-5′,7′-dihydrospiro[pyrrolidine-3,6′-pyrrolo[2,3-d]pyrimidin]-2-one] |  | > 10000 | > 10000 | 0.116 µM | 0.116 µM | 9110 | 9110 | > 10000 | > 10000 | 149 |  |  |  |  |  |  |
| CC(C)N1CCN(c2ccc(Nc3ncc4c(n3)N(C3CCCC3)C3(CCNC3=O)C4)cc2F)CC1 (stereo not drawn) [Compound C118, 7′-cyclopentyl-2′-((3-fluoro-4-(4-isopropylpiperazin-1-yl)phenyl)amino)-5′,7′-dihydrospiro[pyrrolidine-3,6′-pyrrolo[2,3-d]pyrimidin]-2-one] |  | 4900 | 4900 | 0.0264 µM | 0.0264 µM | 3820 | 3820 | > 10000 | > 10000 | 16 |  |  |  |  |  |  |
| Cc1cc(Nc2ncc3c(n2)N(C2CCCC2)C2(CCNC2=O)C3)ccc1N1CCN(C(C)C)CC1 (stereo not drawn) [Compound C121, 7′-cyclopentyl-2′-((4-(4-isopropylpiperazin-1-yl)-3-methylphenyl)amino)-5′,7′-dihydrospiro[pyrrolidine-3,6′-pyrrolo[2,3-d]pyrimidin]-2-one] |  | > 10000 | > 10000 | 0.374 µM | 0.374 µM | > 10000 | > 10000 | > 10000 | > 10000 | 132 |  |  |  |  |  |  |
| COc1cc(Nc2ncc3c(n2)N(C2CCCC2)C2(CCNC2=O)C3)ccc1N1CCN(C)CC1 (stereo not drawn) [Compound C123, 7′-cyclopentyl-2′-((3-methoxy-4-(4-methylpiperazin-1-yl)phenyl)amino)-5′,7′-dihydrospiro[pyrrolidine-3,6′-pyrrolo[2,3-d]pyrimidin]-2-one] |  | > 10000 | > 10000 | 0.955 µM | 0.955 µM | > 10000 | > 10000 | > 10000 | > 10000 | 292 |  |  |  |  |  |  |
| CC(C)N1CCN(c2ccc(Nc3ncc4c(n3)N(C3CCCC3)C3(CC(=O)NC3=O)C4)cc2)CC1 (stereo not drawn) [Compound C134, 7′-cyclopentyl-2′-((4-(4-isopropylpiperazin-1-yl)phenyl)amino)-5′,7′-dihydrospiro[pyrrolidine-3,6′-pyrrolo[2,3-d]pyrimidine]-2,5-dione] |  | 2280 | 2280 |  |  | 1780 | 1780 | 8100 | 8100 |  |  |  |  |  |  |  |
| CN1CCN(c2ccc(Nc3ncc4c(n3)N(C3CCCC3)C3(CC(=O)NC3=O)C4)cc2F)CC1 (stereo not drawn) [Compound C198, 7′-cyclopentyl-2′-((3-fluoro-4-(4-methylpiperazin-1-yl)phenyl)amino)-5′,7′-dihydrospiro[pyrrolidine-3,6′-pyrrolo[2,3-d]pyrimidine]-2,5-dione] |  | 247 | 247 |  |  |  |  | 168 | 168 |  |  |  |  |  |  |  |
| CN1CCN(c2ccc(Nc3ncc4c(n3)N(C3CCCCC3)C3(CCNC3=O)C4)cc2)CC1 (stereo not drawn) [Compound C199, 7′-cyclohexyl-2′-((4-(4-methylpiperazin-1-yl)phenyl)amino)-5′,7′-dihydrospiro[pyrrolidine-3,6′-pyrrolo[2,3-d]pyrimidin]-2-one] |  |  |  | 0.0332 µM | 0.0332 µM |  |  |  |  |  |  |  |  |  | 0.103 | 0.103 |
| CN1CCN(c2ccc(Nc3ncc4c(n3)N(C3CCCCC3)C3(CCNC3=O)C4)cc2F)CC1 (stereo not drawn) [Compound C200, 7′-cyclohexyl-2′-((3-fluoro-4-(4-methylpiperazin-1-yl)phenyl)amino)-5′,7′-dihydrospiro[pyrrolidine-3,6′-pyrrolo[2,3-d]pyrimidin]-2-one] |  |  |  | 0.0138 µM and 0.0102 µM | 0.0138 µM and 0.0102 µM |  |  |  |  |  |  |  |  |  | 0.069 | 0.069 |
| CN1CCN(c2ccc(Nc3ncc4c(n3)N(C3CCCCC3)C3(CCNC3=O)C4)cn2)CC1 (stereo not drawn) [Compound C201, 7′-cyclohexyl-2′-((6-(4-methylpiperazin-1-yl)pyridin-3-yl)amino)-5′,7′-dihydrospiro[pyrrolidine-3,6′-pyrrolo[2,3-d]pyrimidin]-2-one] |  |  |  | 0.0393 µM | 0.0393 µM |  |  |  |  |  |  |  |  |  | 0.115 | 0.115 |
| CN1CCN(c2ccc(Nc3ncc4c(n3)N(C3CCCCC3)C3(CCNC3=O)C4)nc2)CC1 (stereo not drawn) [Compound C202, 7′-cyclohexyl-2′-((5-(4-methylpiperazin-1-yl)pyridin-2-yl)amino)-5′,7′-dihydrospiro[pyrrolidine-3,6′-pyrrolo[2,3-d]pyrimidin]-2-one] |  |  |  | 0.368 µM | 0.368 µM |  |  |  |  |  |  |  |  |  | 0.704 | 0.704 |
